Assays:
Format in all cases: biochemical
[1] = biological target: T1, NEU4 (Homo sapiens, UniProt Q8WWR8); test: IC50 inhibition assay using 4MU-NANA as the substrate, NEU4; design: GST; made in house; host or cells: E. coli; conditions: 4MU-NANA as the substrate; read-out: IC50 NEU4
T1 sequence (Q8WWR8 1-484): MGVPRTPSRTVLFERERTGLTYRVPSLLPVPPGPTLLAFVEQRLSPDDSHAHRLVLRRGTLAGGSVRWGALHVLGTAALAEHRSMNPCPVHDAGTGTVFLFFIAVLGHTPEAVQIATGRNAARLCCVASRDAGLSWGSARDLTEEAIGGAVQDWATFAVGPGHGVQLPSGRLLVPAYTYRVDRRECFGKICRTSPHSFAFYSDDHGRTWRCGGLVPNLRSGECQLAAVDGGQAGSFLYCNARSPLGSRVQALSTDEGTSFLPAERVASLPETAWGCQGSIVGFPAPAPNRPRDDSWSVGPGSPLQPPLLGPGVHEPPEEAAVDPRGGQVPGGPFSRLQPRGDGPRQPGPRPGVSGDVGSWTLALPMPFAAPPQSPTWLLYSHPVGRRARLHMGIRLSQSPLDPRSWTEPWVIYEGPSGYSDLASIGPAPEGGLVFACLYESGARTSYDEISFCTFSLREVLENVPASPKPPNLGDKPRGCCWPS

[2] = test system: NEU1, NEU2, NEU3, NEU4; test: Isoenzyme specificity/selectivity from 4MU-NANA IC50 across the four human neuraminidases; conditions: for Target: isoenzyme(s) the compound is specific for, dual (bispecific) when ratio of IC50 is about 3 or less
[3] = biological target: T2, NEU1 (Homo sapiens, UniProt Q99519); test: IC50 inhibition assay using 4MU-NANA as the substrate, NEU1; conditions: 4MU-NANA as the substrate; read-out: IC50 NEU1
T2 construct: made in house; host or cells: HEK293 (lentiviral transduction), crude lysate
Method: Two weeks after transduction cells were harvested and a crude lysate showing ˜200 nmol/h mg of sialidase activity used in experiments.
Assays were performed with duplicates for each point and IC50 was obtained by plotting the data with Graphpad™ Prism 5.0.

[4] = biological target: T3, NEU3 (Homo sapiens, UniProt Q9UQ49); test: IC50 inhibition assay using 4MU-NANA as the substrate, NEU3; design: MBP (N); made in house; host or cells: E. coli; conditions: 4MU-NANA as the substrate; read-out: IC50 NEU3
T3 sequence (Q9UQ49 1-428): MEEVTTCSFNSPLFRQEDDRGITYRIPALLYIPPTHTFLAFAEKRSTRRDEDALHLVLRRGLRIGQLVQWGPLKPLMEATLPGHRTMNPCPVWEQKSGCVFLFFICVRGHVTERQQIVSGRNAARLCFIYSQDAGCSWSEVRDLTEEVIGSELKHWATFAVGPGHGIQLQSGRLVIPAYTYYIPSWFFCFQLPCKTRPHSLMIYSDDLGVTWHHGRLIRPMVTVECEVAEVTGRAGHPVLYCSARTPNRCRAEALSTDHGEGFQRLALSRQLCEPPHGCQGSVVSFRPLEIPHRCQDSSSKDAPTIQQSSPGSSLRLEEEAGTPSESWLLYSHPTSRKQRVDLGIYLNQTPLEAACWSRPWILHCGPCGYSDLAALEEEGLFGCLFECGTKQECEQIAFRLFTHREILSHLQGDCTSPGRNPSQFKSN

CCCCCCC(=O)N[C@H]1[C@H]([C@H](O)[C@H](O)CO)OC(C(=O)O)=C[C@@H]1O [compound 33, 5-Heptanamido-2,6-anhydro-3,5-dideoxy-D-glycero-D-galacto-non-2-enonic acid]
IC50 [1]: 470 ± 200 µM
Target [2]: NEU1
IC50 [3]: 2.1 ± 0.2 µM
IC50 [4]: 210 ± 70 µM

CC(=O)N[C@H]1[C@H]([C@H](O)[C@H](O)Cn2cc(-c3ccc(N)cc3)nn2)OC(C(=O)O)=C[C@@H]1O [7c]
IC50 [1]: 12 ± 1 µM
Target [2]: NEU3/ NEU4
IC50 [3]: 76 ± 16 µM
IC50 [4]: 8.7 ± 0.9 µM

CN(C)c1ccc(-c2cn(CC(=O)N[C@@H]3C(O)C=C(C(=O)O)OC3C(O)C(O)CO)nn2)cc1 (stereo partly drawn) [compound 47, 5-(2-(4-(4-(dimethylamino)phenyl-1H-1,2,3-triazol-1-yl)acetamido))-2,3,5-trideoxy-D-glycero-D-galacto-2-nonulopyranosonic acid]
IC50 [1]: 36 ± 5 µM
Target [2]: NEU1/ NEU2/ NEU3/ NEU4
IC50 [3]: 110 ± 10 µM
IC50 [4]: 46 ± 7 µM

CC(C)CC(=O)N[C@H]1[C@H]([C@H](O)[C@H](O)CO)OC(C(=O)O)=C[C@@H]1O [compound 35, 5-(3-methylbutanamido)-2,6-anhydro-3,5-dideoxy-D-glycero-D-galacto-non-2-enonic acid]
IC50 [1]: > 500 µM
Target [2]: NEU1/ NEU2
IC50 [3]: 32 ± 5 µM
IC50 [4]: > 500 µM

CC(=O)N[C@H]1[C@H]([C@H](O)[C@H](O)Cn2cc(-c3ccc(C)cc3)nn2)OC(C(=O)O)=C[C@@H]1O [7d]
IC50 [1]: 3.9 ± 0.4 µM
Target [2]: NEU3/ NEU4
IC50 [3]: 51 ± 7 µM
IC50 [4]: 8.2 ± 1.3 µM

CC(=O)Nc1cccc(C(=O)NC[C@@H](O)[C@@H](O)[C@@H]2OC(C(=O)O)=C[C@H](O)[C@H]2NC(C)=O)c1 [compound 60, 5-Acetamido-9-(3-acetamido)benzamido-2,6-anhydro-3,5-dideoxy-d-glycero-d-galacto-non-2-enonic acid]
IC50 [1]: 52 ± 9 µM
Target [2]: NEU1/ NEU3
IC50 [3]: 6.5 ± 1.1 µM
IC50 [4]: 7.1 ± 0.7 µM

CC(C)CCC(=O)N[C@H]1[C@H]([C@H](O)[C@H](O)CO)OC(C(=O)O)=C[C@@H]1O [compound 36, 5-(4-Methylpentanamido)-2,6-anhydro-3,5-dideoxy-D-glycero-D-galacto-non-2-enonic acid]
IC50 [1]: 370 ± 160 µM
Target [2]: NEU1
IC50 [3]: 1.7 ± 0.1 µM
IC50 [4]: 150 ± 20 µM

CCCCCCC(=O)NCC(O)C(O)C1OC(C(=O)O)=CC(O)[C@H]1NC(C)=O (stereo partly drawn) [compound 52, 5-Acetamido-9-heptanamido-2,6-anhydro-3,5-dideoxy-D-glycero-D-galacto-non-2-enonic acid]
IC50 [1]: 310 ± 30 µM
Target [2]: NEU1
IC50 [3]: 9.9 ± 1.3 µM
IC50 [4]: 39 ± 8 µM

COc1ccc(-c2cn(C[C@@H](O)[C@@H](O)[C@@H]3OC(C(=O)O)=C[C@H](O)[C@H]3NC(C)=O)nn2)cc1 [7e, 5-Acetamido-(4-methoxyphenyl)-2,6-anhydro-3,5-dideoxy-b-glycero-D-galacto-non-2-enonic acid]
IC50 [1]: 2.6 ± 0.3 µM
Target [2]: NEU3/ NEU4
IC50 [3]: 47 ± 6 µM
IC50 [4]: 5.9 ± 0.4 µM

CC(=O)N[C@H]1[C@H]([C@H](O)[C@H](O)CNC(=O)c2ccc(N)cc2)OC(C(=O)O)=C[C@@H]1O [compound 59, 5-Acetamido-9-(4-amino)benzamido-2,6-anhydro-3,5-dideoxy-b-glycero-D-galacto-non-2-enonic acid]
IC50 [1]: 210 ± 80 µM
Target [2]: NEU1/ NEU3
IC50 [3]: 29 ± 5 µM
IC50 [4]: 31 ± 6 µM

COc1ccc(-c2cn(CC(=O)N[C@@H]3C(O)C=C(C(=O)O)OC3C(O)C(O)CO)nn2)cc1 (stereo partly shown) [compound 44]
IC50 [1]: 87 ± 14 µM
Target [2]: NEU2
IC50 [3]: > 500 µM
IC50 [4]: > 500 µM

CC(=O)N[C@H]1[C@H]([C@H](O)[C@H](O)CNC(=O)c2cccc(N)c2)OC(C(=O)O)=C[C@@H]1O [compound 61, 5-Acetamido-9-(3-amino)benzamido-2,6-anhydro-3,5-dideoxy-b-glycero-D-galacto-non-2-enonic acid]
IC50 [1]: 150 ± 40 µM
Target [2]: NEU1
IC50 [3]: 6.5 ± 0.7 µM
IC50 [4]: 35 ± 6 µM

CC(=O)Nc1ccc(-c2cn(CC(=O)N[C@@H]3C(O)C=C(C(=O)O)OC3C(O)C(O)CO)nn2)cc1 (stereo partly shown) [compound 48]
IC50 [1]: > 500 µM
Target [2]: NEU2
IC50 [3]: > 500 µM
IC50 [4]: > 500 µM

CCCC(=O)N[C@@H]1C(O)C=C(C(=O)O)OC1C(O)C(O)CO (stereo partly shown) [compound 30, 5-Butyramido-2,6-anhydro-3,5-dideoxy-n-glycero-n-galacto-non-2-enonic acid]
IC50 [1]: 8.4 ± 0.4 µM
Target [2]: NEU1/ NEU4
IC50 [3]: 8.4 ± 0.5 µM
IC50 [4]: 15 ± 2 µM

O=C(O)C1=C[C@H](O)[C@@H](NC(=O)C2CCC2)[C@H]([C@H](O)[C@H](O)CO)O1 [compound 38, 5-Cyclobutanecarboxamido-2,6-anhydro-3,5-dideoxy-D-glycero-D-galacto-non-2-enonic acid]
IC50 [1]: 81 ± 15 µM
Target [2]: NEU1
IC50 [3]: 12 ± 2 µM
IC50 [4]: 100 ± 20 µM

CCCCCC(=O)NC[C@@H](O)[C@@H](O)[C@@H]1OC(C(=O)O)=C[C@H](O)[C@H]1NC(=O)CC [compound 66, 5-Propionamido-9-hexanamido-2,6-anhydro-3,5-dideoxy-D-glycero-D-galacto-non-2-enonic acid]
IC50 [1]: 210 ± 90 µM
Target [2]: NEU1
IC50 [3]: 1.4 ± 0.2 µM
IC50 [4]: 260 ± 70 µM

CC(=O)Nc1ccc(C(=O)NC[C@@H](O)[C@@H](O)[C@@H]2OC(C(=O)O)=C[C@H](O)[C@H]2NC(C)=O)cc1 [compound 58, 5-Acetamido-9-(4-acetamido)benzamido-2,6-anhydro-3,5-dideoxy-d-glycero-d-galacto-non-2-enonic acid]
IC50 [1]: 24 ± 6 µM
Target [2]: NEU1
IC50 [3]: 1.9 ± 0.4 µM
IC50 [4]: 7.2 ± 1.2 µM

CC(=O)Nc1ccc(C(=O)NCCCCC(=O)NC[C@@H](O)[C@@H](O)[C@@H]2OC(C(=O)O)=C[C@H](O)[C@H]2NC(C)=O)cc1 [compound 62, 5-Acetamido-9-(5-(4-acetamidobenzamido))pentanamido-2,6-anhydro-3,5-dideoxy-d-glycero-d-galacto-non-2-enonic acid]
IC50 [1]: 46 ± 13 µM
Target [2]: NEU3/ NEU4
IC50 [3]: 240 ± 70 µM
IC50 [4]: 31 ± 5 µM

O=C(O)C1=C[C@H](O)[C@@H](NC(=O)c2ccccc2)[C@H]([C@H](O)[C@H](O)CO)O1 [compound 39, 5-Benzamido-2,6-anhydro-3,5-dideoxy-D-glycero-D-galacto-non-2-enonic acid]
IC50 [1]: > 500 µM
Target [2]: NEU1
IC50 [3]: 11 ± 1 µM
IC50 [4]: 480 ± 100 µM

CC(=O)N[C@H]1[C@H]([C@H](O)[C@H](O)Cn2cc(-c3ccc(Oc4ccccc4)cc3)nn2)OC(C(=O)O)=C[C@@H]1O [7j]
IC50 [1]: 0.97 ± 0.24 µM
Target [2]: NEU3/ NEU4
IC50 [3]: > 500 µM
IC50 [4]: 1 ± 0.1 µM

CC(=O)N[C@H]1[C@H]([C@H](O)[C@H](O)Cn2cc(-c3ccc(F)cc3)nn2)OC(C(=O)O)=C[C@@H]1O [7f]
IC50 [1]: 1.3 ± 0.2 µM
Selectivity ([2]; from 4MU-NANA IC50, for the isoenzyme(s) in column Target): 10
Target [2]: NEU4
IC50 [3]: 100 ± 40 µM
IC50 [4]: 17 ± 2 µM

O=C(O)C1=C[C@H](O)[C@@H](NC(=O)C2CC2)[C@H]([C@H](O)[C@H](O)CO)O1 [compound 37, 5-Cyclopropanecarboxamido-2,6-anhydro-3,5-dideoxy-D-glycero-D-galacto-non-2-enonic acid]
IC50 [1]: 150 ± 40 µM
Target [2]: NEU1
IC50 [3]: 6.9 ± 0.4 µM
IC50 [4]: 170 ± 40 µM

CC(=O)N[C@H]1[C@H]([C@H](O)[C@H](O)Cn2cc(-c3ccc(N(C)C)cc3)nn2)OC(C(=O)O)=C[C@@H]1O [7a]
IC50 [1]: 28 ± 3 µM
Target [2]: NEU3/ NEU4
IC50 [3]: 190 ± 40 µM
IC50 [4]: 9.3 ± 0.8 µM

O=C(Cn1cc(-c2ccc(C(=O)O)cc2)nn1)N[C@@H]1C(O)C=C(C(=O)O)OC1C(O)C(O)CO (stereo partly shown) [compound 43]
IC50 [1]: 400 ± 160 µM
Target [2]: NEU2
IC50 [3]: > 500 µM
IC50 [4]: > 500 µM

— patent publication US11773129B2, “Methods of preventing or treating atherosclerosis with inhibitors of specific isoenzymes of human neuraminidase” (THE GOVERNORS OF THE UNIVERSITY OF ALBERTA, priority 2017, dated 2023)
